From patent publication US20220117913A1, “DEZOCINE DERIVATIVE AND MEDICAL USE THEREOF” (YANGTZE RIVER PHARMACEUTICAL GROUP CO., LTD., priority 2019, published 2022)
Counter-ions that a name gives are not always drawn. Like-named read-outs stand apart in the source and are kept apart here.

Columns and labels:
[1] = target: μ opioid receptor (Homo sapiens, UniProt P35372); test: radioisotope ligand competitive binding assay, μ opioid receptor (MOR)
[2] = target: κ opioid receptor (Homo sapiens, UniProt P41145); test: radioisotope ligand competitive binding assay, κ opioid receptor (KOR)
Excerpt: (§1) Through the radioisotope ligand competitive binding assay, IC50 of the compound was used as an indicator to evaluate the affinity of the compound to κ and δ opioid receptors.
(§2) (1) Reagents • The cell membrane was extracted from stably transfected cells constructed by WuXi AppTec, Shanghai. • 3H-diprenophrine (PerkinElmer, Cat: NET1121250UC, Lot: 2143599) • 3H-DAMGO (PerkinElmer, Cat: NET902250UC, Lot: 2139100) • 3H-DADLE (PerkinElmer, Cat: NET648250UC, Lot: 2060549) • Tris base (Sigma, Cat: T6066-1KG), prepare 1M stock and adjust pH to 7.4. • 0.5M EDTA (Invitrogen, Cat: 15575-038) • 1M MgCl2 (Sigma, Cat: M1028-100 ml) • PEI (Poly ethyleneimine) (Sigma, Cat: P3143) • Microscint 20 cocktail (PerkinElmer, Cat: 6013329) • Naltrindole (Sigma, Cat; N115) • (±)trans-U-50488 (Sigma, Cat: D8040) • DAMGO (Sigma, Cat: E7384)
(§3) (1) 1 μL of the test compounds, negative control (i.e., DMSO) and positive control (i.e., non-specific binding well compound), after being prepared, were respectively transferred to a 96-well plate;
(§4) (2) 99 μL of the prepared opioid receptor membrane protein was added to each well of the 96-well plate containing 1 μL of the compound;
(§5) (3) 100 μL of 2× corresponding radioisotope ligand was added to each well;
(§6) (4) The plate was placed on a shake and incubated at room temperature for 1 hour;
(§7) (5) Each well of the GF/C plate was soaked with 50 μL of 0.3% PEI for at least half an hour in advance;
(§8) (6) After the incubation was finished, the GF/C plate was washed with plate washing buffer once by using Harvest. Then, the cell membranes in the 96-well plate were collected onto the GF/C plate using Harvest, and the GF/C plate was washed four times with the plate washing buffer, each time about 250 μL;
(§9) (7) The GF/C plate was placed in an oven at 50° C. for 1 hour;
(§10) (8) The bottom of the GF/C plate was sealed with a plate sealing film, 50 μL of Microscint-20 scintillation fluid was added to each well, and then the plate was sealed with a transparent sealing film for microplate;
(§11) (9) The radioactive signal value CPM was read using MicroBeta2;
(§12) (10) The data was analyzed with Prism 5. The percentage inhibition rate was calculated with the calculation formula: % Inh=(1-Background subtracted Assay value/Background subtracted HC value)*100.

[3] = target: δ opioid receptor (Homo sapiens, UniProt P41143); test: radioisotope ligand competitive binding assay, δ opioid receptor (DOR)
Excerpt: as §1, §2, §3, §4, §5, §6, §7, §8, §9, §10, §11, §12

[4] = system: pain induced by heat radiation in mice; test: pain induced by heat radiation in mice (light and heat-induced pain); format: in vivo; details: for ED50: Mus musculus; for analgesic effect (comparison in words): four mouse models of pain (heat radiation and hot plate), versus dezocine
Excerpt: (§13) A mode of pain induced by heat radiation in mice and a mode of pain induced by hot plate in mice were used to evaluate the analgesic intensity of the test compounds.

[5] = system: pain induced by hot plate in mice; test: pain induced by hot plate in mice; format: in vivo; details: Mus musculus; male mice
Excerpt: as §13

[6] = pharmacokinetic investigation of intravenous administration in mice; format: in vivo; details: mouse; male mice, intravenous injection, plasma
Description: Male mice were injected intravenously with the compound of the present disclosure, and the concentration of the unchanged compound in plasma and the concentration of the metabolite of dezocine hydrochloride were measured after the administration.

[7] = [3H]DAMGO 0.5 nM, cell membrane of stably transfected cells, read-out: μ IC50
[8] = [3H]Diprenorphine 0.3 nM, cell membrane of stably transfected cells, read-out: κ IC50
[9] = [3H]-DADLE 0.5 nM, cell membrane of stably transfected cells, read-out: δ IC50
[10] = female mice, read-out: Light and heat-induced pain ED50 Female
[11] = male mice, read-out: Light and heat-induced pain ED50 Male

Compound | IC50 [1, 7] [nM] | IC50 [2, 8] [nM] | IC50 [3, 9] [nM] | other results
CCCCN[C@H]1[C@H]2CCCCC[C@]1(C)c1cc(O)ccc1C2 [Hydrochloride of compound 21] | < 10 | 10 to 100 | 10 to 100 | ED50 [4, 10]: 0.068 mg/kg; ED50 [4, 11]: 0.12 mg/kg; Light and heat-induced pain ED95 Female ([4]; female mice): 0.083 mg/kg; Light and heat-induced pain ED95 Male ([4]; male mice): 0.18 mg/kg; ED50 [5]: 0.15 mg/kg; half-life [6]: 1.27 h
C[C@@]12CCCCC[C@@H](Cc3ccc(O)cc31)[C@@H]2NCc1ccccc1 [Hydrochloride of compound 26] | < 10 | < 10 | < 10 | ED50 [4, 10]: 0.025 mg/kg; ED50 [4, 11]: 0.017 mg/kg; Light and heat-induced pain ED95 Female ([4]; female mice): 0.043 mg/kg; analgesic effect (comparison in words) [4]: strongest analgesic effect; Light and heat-induced pain ED95 Male ([4]; male mice): 0.021 mg/kg; ED50 [5]: 0.045 mg/kg; half-life [6]: 1.35 h
C[C@@]12CCCCC[C@@H](Cc3ccc(O)cc31)[C@@H]2NCCc1ccccc1 [Hydrochloride of compound 25] | < 10 | 100 to 1000 | 100 to 1000 | ED50 [4, 10]: 1.15 mg/kg; ED50 [4, 11]: 0.74 mg/kg; Light and heat-induced pain ED95 Female ([4]; female mice): 2.88 mg/kg; Light and heat-induced pain ED95 Male ([4]; male mice): 1.18 mg/kg; half-life [6]: 1.65 h
CCCN(C)[C@H]1[C@H]2CCCCC[C@]1(C)c1cc(O)ccc1C2 [Hydrochloride of compound 31] | < 10 | 100 to 1000 | 10 to 100 | –
CCCN(C)[C@H]1[C@H]2CCCCC[C@]1(C)c1cc(OC)ccc1C2 [Hydrochloride of compound 14] | 100 to 1000 | 1000 to 10000 | > 10000 | –
C[C@@]12CCCCC[C@@H](Cc3ccc(O)cc31)[C@@H]2N (relative stereo) [dezocine hydrochloride, (−)-[5R-(5a,11a,13S*)]-13-amino-5,6,7,8,9,10,11,12-octahydro-5-methyl-5,11-methylene benzocyclodecen-3-ol, reference compound] | – | – | – | half-life [6]: 0.903 h
CCOc1ccc2c(c1)[C@@]1(C)CCCCC[C@@H](C2)[C@@H]1N [Hydrochloride of compound 35] | – | – | – | IC50 [1]: 100 to 1000 nM; IC50 [2]: > 10000 nM; IC50 [3]: > 10000 nM
CCN[C@H]1[C@H]2CCCCC[C@]1(C)c1cc(OC)ccc1C2 [Hydrochloride of compound 2] | 100 to 1000 | 1000 to 10000 | > 10000 | –
CCCCCN(C)[C@H]1[C@H]2CCCCC[C@]1(C)c1cc(OC)ccc1C2 [Hydrochloride of compound 16] | 100 to 1000 | > 10000 | > 10000 | –
CCCCCN[C@H]1[C@H]2CCCCC[C@]1(C)c1cc(O)ccc1C2 [Hydrochloride of compound 22] | < 10 | 10 to 100 | 10 to 100 | ED50 [4, 10]: 0.18 mg/kg; ED50 [4, 11]: 0.13 mg/kg; Light and heat-induced pain ED95 Female ([4]; female mice): 0.26 mg/kg; analgesic effect (comparison in words) [4]: stronger than dezocine; Light and heat-induced pain ED95 Male ([4]; male mice): 0.26 mg/kg; ED50 [5]: 0.3 mg/kg; half-life [6]: 1.24 h
CN(C)[C@H]1[C@H]2CCCCC[C@]1(C)c1cc(O)ccc1C2 [Hydrochloride of compound 28] | < 10 | 100 to 1000 | 1000 to 10000 | –
CCN[C@H]1[C@H]2CCCCC[C@]1(C)c1cc(O)ccc1C2 [Hydrochloride of compound 19] | < 10 | 10 to 100 | 1000 to 10000 | –
CCOc1ccc2c(c1)[C@@]1(C)CCCCC[C@@H](C2)[C@@H]1NC [Hydrochloride of compound 37] | 1000 to 10000 | 1000 to 10000 | > 10000 | –
COc1ccc2c(c1)[C@@]1(C)CCCCC[C@@H](C2)[C@@H]1N(C)C [Hydrochloride of compound 11] | 100 to 1000 | > 10000 | > 10000 | –
CN(Cc1ccccc1)[C@H]1[C@H]2CCCCC[C@]1(C)c1cc(OCc3ccccc3)ccc1C2 [Hydrochloride of compound 40] | < 10 | < 10 | 10 to 100 | –
COc1ccc2c(c1)[C@@]1(C)CCCCC[C@@H](C2)[C@@H]1NC(C)C [Hydrochloride of compound 6] | 1000 to 10000 | 1000 to 10000 | > 10000 | –
CN[C@H]1[C@H]2CCCCC[C@]1(C)c1cc(O)ccc1C2 [Hydrochloride of compound 18] | 10 to 100 | 100 to 1000 | 1000 to 10000 | –
